Test results published in patent publication US9062351B2, “Diagnostic, prognostic and therapeutic uses of long non-coding RNAs for cancer and regenerative medicine” (The Board of Trustees of the Leland Stanford Junior …, priority 2011, dated 2015).

Key:
[1] = test system: human fetal lung fibroblasts; assay: Custom tiling array RNA hybridization (ncRNA expression); format: cell-based; details: doxorubicin-treated human fetal lung fibroblasts; tiling array and qRT-PCR; of 216 ncRNAs
Text: A custom tiling array (Roche NimbleGen) was designed at 5 bp resolution across 25 kb of the 9p21 region (which encompasses CDKN2A, P14ARF and CDKN2B), as well as from 10 kb upstream to 2 kb downstream of each TSS from 53 other cell-cycle genes, including those encoding cyclins, CDKs and CDKIs (Table 1). In addition, the HOXA and HOXD loci were placed on the array as a control. Briefly, RNA was amplified (MessageAmp Kit, Ambion), reverse transcribed (RETROscript Kit, Ambion), labeled and hybridized according to the standard NimbleGen protocol.
Robust multichip average normalized single channel data from each array were subjected to peak calling using the NimbleScan program (Roche NimbleGen) with a window size of 50. Peaks with a peak score greater than ten were considered significant transcriptional units. […]
A peak calling algorithm searched for statistically significant signals above background and detected contiguous regions (peaks) of at least 50 bp. […] Averaging the signal intensity across all probes in a peak produced a quantitative estimate of transcript abundance. Despite possible 3′ bias caused by polyadenylated RNA selection, our procedure detected exon 1 transcription from the majority of cell-cycle coding genes (41 of the 56), showing that this custom tiling array can detect previously reported transcribed regions. […]

[2] = test system: human fetal lung fibroblasts (FL3); assay: Quantitative RT-PCR of lncRNA expression, doxorubicin time course; format: cell-based; details: 24 hour time course
Method: Total RNA was extracted from cells using the TRIzol reagent (Invitrogen) and the RNeasy Mini Kit (Qiagen), and genomic DNA was eliminated using TURBO DNA-free (Ambion). RT-PCR using 50-250 ng of total RNA was performed using the One-Step RT-PCR Master Mix (Applied Biosystems) using TaqMan Gene Expression Assays and normalized to GAPDH. Strand-specific RT-PCR for PANDA was performed using the One-Step RT-PCR Master Mix SYBR Green (Stratagene)).
A panel of TaqMan custom ncRNA assays was developed targeting 60 of the 219 new transcribed regions using the ‘single-exon’ design mode. The transcript specificity and genome specificity of all TaqMan assays were verified using a position-specific alignment matrix to predict potential cross reactivity between designed assays and genome-wide nontarget transcripts or genomic sequences. […]
Our co-expression maps predicted associations of several lncRNAs with DNA damage response pathways (FIG. 3C and FIG. 11). […] In order to confirm whether these lncRNAs may be responsive to DNA damage, we measured the expression changes of 60 lncRNAs predicted in the DNA damage pathway (as well as upst:CDKN1A:−800) by quantitative RT-PCR in human fetal lung fibroblasts treated with doxorubicin over a 24 hour time course. […]

[3] = test system: human fetal lung fibroblasts (FL3); assay: TUNEL assay; format: cell-based; details: FL3 cells exposed to control siRNA
Method: TUNEL assays were performed using the in situ Cell Death Detection Kit, TMR Red (Roche). Human fetal lung fibroblasts were cultured on chamber slides (Lab-Tek), treated with 200 ng/ml doxorubicin (Sigma) for 24 hours, fixed with methanol at −20° C. for 10 minutes and incubated with the TUNEL labeling mixture for 1 hour at 37° C. Slides were then washed with PBS and mounted in Prolong Gold antifade reagent with DAPI (Invitrogen) and imaged at 20× magnification.

[4] = biological target: T1, EZH2 (Homo sapiens, UniProt Q15910); assay: RNAse mediated RNA chromatography; format: binding; details: lysates of doxorubicin-treated human fibroblasts
T1 construct: RNA chromatography of PANDA from doxorubicin-treated FL3 cell lysates; endogenous in cells; host or cells: doxorubicin-treated human fetal lung fibroblasts (FL3)
T1 sequence (Q15910 whole entry): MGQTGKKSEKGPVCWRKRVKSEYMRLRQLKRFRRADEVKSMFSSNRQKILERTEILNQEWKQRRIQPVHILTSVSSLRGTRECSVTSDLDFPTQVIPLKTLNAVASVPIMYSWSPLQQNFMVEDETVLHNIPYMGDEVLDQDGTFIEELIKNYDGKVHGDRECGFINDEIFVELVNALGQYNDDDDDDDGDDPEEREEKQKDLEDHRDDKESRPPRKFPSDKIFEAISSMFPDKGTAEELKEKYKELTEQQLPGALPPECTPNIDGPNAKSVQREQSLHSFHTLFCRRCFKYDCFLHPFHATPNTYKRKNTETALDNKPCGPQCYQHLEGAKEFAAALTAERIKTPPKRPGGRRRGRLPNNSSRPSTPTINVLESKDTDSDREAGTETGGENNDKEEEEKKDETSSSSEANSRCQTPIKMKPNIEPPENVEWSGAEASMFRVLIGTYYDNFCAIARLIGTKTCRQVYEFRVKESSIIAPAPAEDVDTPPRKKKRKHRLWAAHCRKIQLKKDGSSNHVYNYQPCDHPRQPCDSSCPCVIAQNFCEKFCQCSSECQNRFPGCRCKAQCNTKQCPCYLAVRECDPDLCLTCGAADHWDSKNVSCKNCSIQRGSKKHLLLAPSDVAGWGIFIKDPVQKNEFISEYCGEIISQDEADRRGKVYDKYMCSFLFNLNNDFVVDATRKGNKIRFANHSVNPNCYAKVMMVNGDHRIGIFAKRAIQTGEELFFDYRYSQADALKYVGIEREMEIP
T1 sequence (O75530 whole entry partner): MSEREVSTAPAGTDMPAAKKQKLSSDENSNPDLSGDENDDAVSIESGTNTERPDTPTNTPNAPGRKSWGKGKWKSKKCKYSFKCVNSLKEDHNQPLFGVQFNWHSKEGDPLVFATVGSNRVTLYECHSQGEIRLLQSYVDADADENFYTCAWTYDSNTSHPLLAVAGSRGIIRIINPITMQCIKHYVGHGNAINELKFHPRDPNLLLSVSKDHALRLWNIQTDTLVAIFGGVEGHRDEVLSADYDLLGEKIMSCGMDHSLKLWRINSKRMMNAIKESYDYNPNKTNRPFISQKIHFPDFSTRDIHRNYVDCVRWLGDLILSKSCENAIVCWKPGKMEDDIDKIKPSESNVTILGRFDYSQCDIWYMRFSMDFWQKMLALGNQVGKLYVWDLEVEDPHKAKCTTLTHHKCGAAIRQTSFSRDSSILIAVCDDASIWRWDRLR
T1 sequence (Q15022 whole entry partner): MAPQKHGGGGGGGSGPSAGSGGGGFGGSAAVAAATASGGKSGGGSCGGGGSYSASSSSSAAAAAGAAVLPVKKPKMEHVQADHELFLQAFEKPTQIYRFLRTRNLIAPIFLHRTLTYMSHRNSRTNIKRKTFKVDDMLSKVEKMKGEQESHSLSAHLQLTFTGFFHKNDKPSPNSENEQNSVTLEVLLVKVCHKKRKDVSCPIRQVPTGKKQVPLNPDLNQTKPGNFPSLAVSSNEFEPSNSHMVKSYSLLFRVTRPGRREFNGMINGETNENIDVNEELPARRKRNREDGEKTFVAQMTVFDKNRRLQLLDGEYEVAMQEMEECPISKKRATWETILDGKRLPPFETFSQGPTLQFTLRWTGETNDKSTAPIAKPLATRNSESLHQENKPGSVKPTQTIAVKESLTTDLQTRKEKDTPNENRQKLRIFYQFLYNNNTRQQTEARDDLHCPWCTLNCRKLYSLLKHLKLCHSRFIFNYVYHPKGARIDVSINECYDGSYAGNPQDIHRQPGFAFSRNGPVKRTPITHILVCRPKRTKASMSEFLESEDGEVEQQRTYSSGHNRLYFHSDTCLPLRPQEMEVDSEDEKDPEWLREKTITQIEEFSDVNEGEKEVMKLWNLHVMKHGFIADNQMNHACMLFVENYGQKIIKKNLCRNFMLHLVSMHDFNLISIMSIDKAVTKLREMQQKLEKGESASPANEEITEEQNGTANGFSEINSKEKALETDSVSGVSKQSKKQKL
Method: (§1) RNAse mediated RNA chromatography (Michlewski et al. (2010) RNA 16:1673-1678, herein incorporated by reference in its entirety) was performed as previously described with the following modifications: 6 pmols of RNA (PANDA or a 1.2-kb fragment of LacZ) were used per reaction. RNA was folded (90° C. for 2 minutes, ice for 2 minutes), supplied with RNA structure buffer (Ambion) and shifted to room temperature (22-25° C.) for 20 minutes before conjugation to beads. RNAse digestion was performed with 5 μl of RNase A/T1 cocktail (Ambion) and 2 μl of RNase V1 (Ambion). Cellular lysates were prepared as follows: 10 million doxorubicin treated cells (16 hours) were incubated in 200 μl PBS, 600 μl H20 and 200 μl nuclear lysis buffer (1.28 M sucrose; 40 mM Tris-HCl pH 7.5; 20 mM MgCl2; 4% Triton X-100) on ice for 20 minutes. Nuclei were pelleted by centrifugation at 2,500 g for 15 minutes. The nuclear pellet was resuspended in 1 ml RIP buffer (150 mM KCl, 25 mM Tris pH 7.4, 0.5 mM DTT, 0.5% NP40, 1 mM PMSF and protease inhibitor (Roche Complete Protease Inhibitor Cocktail Tablets)). Resuspended nuclei were sheared using a motorized douncer for 5 seconds. Nuclear membrane and debris were pelleted by centrifugation at 18,000 g for 10 minutes.
(§2) Core promoters of cell death genes downstream of p53 are distinguished from other p53 target genes by the binding site for the transcription factor NF-YA (Morachis et al. (2010) Genes Dev. 24:135-147), and we reasoned that PANDA may affect NF-YA function. […] NF-YA is a nuclear transcription factor that activates the p53-responsive promoter of FAS upon DNA damage (Morachis et al. (2010) Genes Dev. 24:135-147). […] Thus, PANDA binding to NF-YA may evict or prevent NF-YA binding to chromatin. […] CDKN1A mRNA produces p21 to mediate arrest, whereas PANDA impedes NF-YA activation of apoptotic gene expression program (FIG. 8).

[5] = biological target: T2, LSD1 (Homo sapiens, UniProt O60341); assay: RNAse mediated RNA chromatography; format: binding; details: lysates of doxorubicin-treated human fibroblasts
T2 construct: RNA chromatography of PANDA from doxorubicin-treated FL3 cell lysates; endogenous in cells; host or cells: doxorubicin-treated human fetal lung fibroblasts (FL3)
Method: as §1, §2

[6] = biological target: T3, NF-YA (Homo sapiens, UniProt P23511); assay: RNAse mediated RNA chromatography; format: binding; details: in vitro transcribed RNA; lysates of doxorubicin-treated human fibroblasts
T3 construct: RNA chromatography of PANDA from doxorubicin-treated FL3 cell lysates; endogenous in cells; host or cells: doxorubicin-treated human fetal lung fibroblasts (FL3)
T3 sequence (P23511 whole entry): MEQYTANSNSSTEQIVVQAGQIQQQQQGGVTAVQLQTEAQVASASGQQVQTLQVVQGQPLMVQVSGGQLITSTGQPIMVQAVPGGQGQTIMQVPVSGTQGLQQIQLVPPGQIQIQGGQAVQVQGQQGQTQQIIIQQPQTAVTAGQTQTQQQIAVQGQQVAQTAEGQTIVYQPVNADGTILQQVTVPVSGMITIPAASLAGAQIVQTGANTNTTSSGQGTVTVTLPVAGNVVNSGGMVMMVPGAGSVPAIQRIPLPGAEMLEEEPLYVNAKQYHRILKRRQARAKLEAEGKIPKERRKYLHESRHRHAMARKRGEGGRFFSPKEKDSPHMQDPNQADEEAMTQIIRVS
Method: as §1, §2

[7] = biological target: T4, p21 (Homo sapiens, UniProt P38936); assay: RNAse mediated RNA chromatography; format: binding; details: lysates of doxorubicin-treated human fibroblasts
T4 construct: RNA chromatography of PANDA from doxorubicin-treated FL3 cell lysates; endogenous in cells; host or cells: doxorubicin-treated human fetal lung fibroblasts (FL3)
T4 sequence (P38936 whole entry): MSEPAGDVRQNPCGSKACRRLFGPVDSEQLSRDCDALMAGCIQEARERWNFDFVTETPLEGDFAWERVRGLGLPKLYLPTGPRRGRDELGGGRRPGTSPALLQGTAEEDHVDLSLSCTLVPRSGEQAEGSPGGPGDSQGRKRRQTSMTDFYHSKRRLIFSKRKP
Method: as §1, §2

[8] = biological target: T3, NF-YA; assay: RNA immunoprecipitation of NF-YA; format: binding; details: doxorubicin-treated primary human lung fibroblasts, qRT-PCR
Method: Ten million cells were treated with 200 ng/ml doxorubicin for 16 hours, trypsinized and crosslinked with 1% formaldehyde for 10 minutes, followed by the addition of 0.125 M glycine for 5 minutes. After two PBS washes, cells were lysed with 2× volume of Buffer A (10 mM HEPES pH 7.5, 1.5 mM MgCl2, 10 mM KCl, 0.5 mM DTT, 1 mM PMSF) for 15 minutes on ice at 150 r.p.m. NP-40 was added to a final concentration of 0.25% for 5 minutes on ice. Lysates were centrifuged for 3 minutes at 2,000 r.p.m., and the supernatant (cytosol) was collected. Next, an equal volume of Buffer C as that used of Buffer A was added to the pellet for 20 minutes with frequent vortex (20 mM HEPES pH 7.5, 10% glycerol, 0.42 M KCl, 4 mM MgCl2, 0.5 mM DTT, and 1 mM PMSF). Nuclear lysates were dounced for 5 seconds using a motorized pestle and sonicated for 7 minutes using a Diagenode Sonicator (30 seconds on, 30 seconds off, power setting H). Nuclear and cytoplasmic lysates were combined and centrifuged for 15 minutes at 13,000 r.p.m. Supernatants were transferred into micro spin columns (Pierce 89879), and 2 μg of antibody was added and incubated overnight. We washed 10 μl of Protein A/G UltraLink Resin (Pierce 53132) three times with RIP wash buffer (50 mM TrisHcl pH 7.9, 10% glycerol, 100 mM KCl, 5 mM MgCl2, 10 mM B-me and 0.1% NP-40) and added it to the immunoprecipitation reaction for 1 hour at 4° C. […]

| Molecule | ncRNAs with at least two-fold change [1] | expression of lncRNAs surrounding the CDKN1A TSS [2] | induction of Upst:CDKN1A:−4,845 (PANDA) upon DNA damage [2] | apoptosis as measured by TUNEL [3] | retrieval of EZH2 [4] | retrieval of LSD1 [5] | retrieval of NF-YA from cellular lysates [6] | retrieval of p21 [7] | retrieval of endogenous PANDA by immunoprecipitation of NF-YA [8] |
| --- | --- | --- | --- | --- | --- | --- | --- | --- | --- |
| COc1cccc2c1C(=O)c1c(O)c3c(c(O)c1C2=O)C[C@@](O)(C(=O)CO)C[C@@H]3O[C@H]1C[C@H](N)[C@H](O)[C@H](C)O1 [doxorubicin] | 12 of the 216 | all five of the tested lncRNAs surrounding the CDKN1A TSS were induced | up to 40 fold | little to no apoptosis | – | – | – | – | – |
| PANDA: P21-Associated NcRNA, DNA damage Activated; 1.5-kb long non-coding RNA | – | – | – | – | did not retrieve | did not retrieve | specifically retrieved | did not retrieve | specifically retrieved |
